Measured values reported in patent US12195505B2, “Treatment of cystic fibrosis by delivery of nebulized mRNA encoding CFTR” (Translate Bio, Inc., priority 2018, dated 2025).

Test system: human bronchial epithelial cells
Test: Ussing chamber assay, Forskolin-induced chloride channel activity
Format: cell-based
Settings: added after current measurement, all groups
Method: The changes in chloride transport across the bronchial epithelial cell membrane was measured by short circuit current output in a Ussing epithelial voltage clamp apparatus (i.e., a Ussing chamber). Specifically, using an established Ussing Chamber procedure (Charles River Laboratories), hCFTR mRNA encapsulated in a liposome comprising ICE, DOPE, and a PEG-modified lipid was incubated for 2 or 4 hours on the apical (mucosal) or basolateral (serosal) sides, or both sides, of human bronchial epithelial cells. A buffer blank also was included as a control, for example, to assess chloride transport by endogenous CFTR in the cells. Next, Forskolin-induced chloride channel activity was measured using the Ussing chamber assay.

O=C(O)c1ccc(/C=C2\SC(=S)N(c3cccc(C(F)(F)F)c3)C2=O)cc1 [CFTR inhibitor-172]
Effect on chloride activity in Ussing chamber: inhibited
